Data taken from patent US20090192198A1, “INHIBITORS OF THE 11-BETA-HYDROXYSTEROID DEHYDROGENASE TYPE 1 ENZYME” (Abbott Laboratories, priority 2005, published 2009).

Tests used:
Male Sprague Dawley rats = assay: Short-term social recognition memory in the rat; assay type: in vivo; settings: 30 mg/kg po at 24, 18 and 1 hour before first juvenile exposure, vs vehicle control rats (FIG. 4)
Experimental: Social memory and social cognition are impaired in disorders such as Alzheimer's disease and schizophrenia. One of the more commonly used preclinical models of social recognition memory is short-term social recognition in the rat, a model of short-term memory based on the recognition of a juvenile rat by an adult rat. […] The juvenile rat is then removed and reintroduced 120 min later, and interactive behavior of the adult rat is again monitored. If memory has been lost over the interval between trials 1 and 2, the extent of interaction is equal (expressed as a ratio of investigation time of T1/T2) and the ratio will be close to 1. However, if the adult remembers the juvenile, the investigation ratio declines. To test for non-specific effects, a novel juvenile is introduced at 120 minutes instead of the familiar juvenile. […]
Rats were pre-dosed po at 24, 18 and 1 hour before first juvenile rat exposure with vehicle, or Compound CC (30 mg/kg). […] The time the adult spent exploring (sniffing, grooming, close following) the juvenile during this test session was recorded, and defined as the first investigation duration. […] Data were analyzed using a one-way analysis of variance. If there was a significant effect, subsequent post hoc significance was determined using Dunnett's multiple comparison testing (p<0.05 was regarded as significant).

[1] = tested on: serotonin (5-HT) levels (medial prefrontal cortex, hippocampus); assay: Microdialysis, cortical/hippocampal serotonin release; assay type: in vivo, rat; settings: single administration 30 mg/kg, p.o.; medial prefrontal cortex and hippocampus (FIGS. 7a, 7b)
Experimental: (§1) Microdialysis studies (resting or challenging conditions) in freely moving, male Sprague Dawley rats (Janvier, 295-315 g, n=5-8/treatment group) were performed using stereotactically instrumented microdialysis probes (CMA/12-14-2): mPFC, hippocampus. Aliquots of the same microdialysate fractions (6 before, and 9-12 after compound administration) were analyzed either for acetylcholine or for serotonin by HPLC and electrochemical detection.
This is a feature shared by marketed anti-depressive drugs and might indicate the potential use for 11β-HSD1 inhibitors as antidepressants/anxiolytic drugs. These findings remain to be confirmed by (i) investigating 11β-HSD1 inhibitors from different chemotype(s) in selected microdialysis studies and/or (ii) in animal models of depression/anxiety.

Fisher rats = assay: Rat wake EEG power spectrum and REM sleep parameters; assay type: in vivo; settings: 30 mg/kg, 3 times at 24, 26, and 0.1 hours before measurement
Experimental: EEG of Fisher rats (n=8/group) with chronically implanted supracortical EEG-electrodes were analyzed for an 8 h period. Intraindividual drug-induced changes of power spectra were analyzed. For REM sleep the number of REM episodes, latency to first REM, and total REM time was analyzed.

[2] = tested on: acetylcholine release (mPFC, hippocampus); assay: Microdialysis, cortical/hippocampal acetylcholine release; assay type: in vivo, rat; settings: single administration 30 mg/kg, p.o.
Experimental: as §1

HSD-1 = assay: Monkey ex vivo HSD1 activity (cortisone to cortisol in harvested tissue); parameters: species or system Cynomolgus Monkeys
Experimental: Harvested tissues (approximately 150 mg) were minced into small, 2 mm pieces in the presence of 5× volume of incubation buffer. Cortisone at final concentrations of 0, 3, 10 or 30 μM was added to each well. Cell culture plates with tissues were incubated at 37° C. for three hours. Two-hundred μL of tissue culture supernatant was then removed and spun at 1000 rpm in an Eppindorf tube, and then 100 μL of resulting supernatant was aliquotted into two tubes for LCMS analysis of cortisol.

phosphorylated CREB = assay: Phosphorylated CREB immunohistochemistry in brain after food-in-diet dosing; assay type: in vivo, mice; settings: 18 days food-in-diet, 10 and 100 mg/kg/day (FIG. 2)
Experimental: In vivo signaling studies were conducted to examine the biochemical pathways that may be mechanistically involved in the cognitive efficacy associated with Compound AA. An important signaling process that serves as a biochemical correlate of synaptic plasticity underlying learning and memory is the phosphorylation of CREB (c-AMP-response element binding protein), a transcription factor critical to long-term memory.
(§2) Male CD-1 mice were obtained from Charles River, Wilmington, Mass. Mice were group-housed 10 per cage. The body weight upon arrival was 20-25 g. Food and water were available ad libitum except during experiments. […]
Following perfusion, brains were removed and postfixed in 20% sucrose-PBS (phosphate buffered saline) overnight and subsequently cut on a cryostat (40 μm coronal sections) and collected as free-floating sections in PBS. […] Immuno-reactivity (IR) was quantified using an image analysis system (Leica, Quantimet 500) that determined number and/or area of peroxidase substrate-positive stained neurons from digitized photomicrographs according to a pixel gray level empirically determined prior to analysis. Overall statistical significance was determined using a one-way ANOVA, with Dunnett's post hoc analyses used to determine significance (p<0.05 was considered significant).

Male CD-1 mice [3] = assay: 24-hour inhibitory avoidance in mice, subchronic (3 administration) dosing; assay type: in vivo; settings: 30 mg/kg PO, BID the day before training and one hour before training, vs vehicle control mice (FIG. 3)
Experimental: Male CD-1 mice were obtained from Charles River, Wilmington, Mass. Mice were group-housed 10 per cage. The body weight upon arrival was 20-25 g. Food and water were available ad libitum except during experiments. Animals were acclimated to the animal facilities for a period of at least one week prior to commencement of experiments. Animals were tested in the light phase of a 12-hour light:12-hour dark schedule (lights on 0600 hours).
Compound AA and Compound BB were synthesized at Abbott Laboratories. […] Compound AA was administered in a cloudy, fine suspension, while Compound BB was administered in a solution.
On training day, mice were injected with Compound AA, Compound BB or vehicle one-hour PO before training. One hour following injection (start of training) mice were subjected to a training session in which they were placed in a lighted compartment of a two-compartment chamber (Gemini apparatus, San Diego Instruments, San Diego, Calif.) with a manually operated gate separating the compartments. […] Twenty-four hours later mice were again tested in the same apparatus, except without shock, and the transfer latency from the lighted to the dark compartment recorded and used as an index of memory for the punished response 24 hours earlier. […] Data were analyzed using Mann Whitney U comparisons. […]

Male CD-1 mice [4] = assay: 24-hour inhibitory avoidance task in mice, drug-in-diet dosing; assay type: in vivo; settings: drug-in-diet 10 and 100 mg/kg/day in Western diet, tested from day 17, vs vehicle control mice (FIG. 1)
Experimental: The 24-hour inhibitory avoidance task in mice is a measure of one-trial learning and memory consolidation in response to a discrete aversive event (foot-shock). Mice are first placed in an illuminated compartment of a two-compartment apparatus. Mice will naturally step through into an adjoining dark compartment, which they prefer. When the mice enter the dark they receive a mild foot-shock. To assess memory, mice are tested 24 hours later and the length of time the animal refrains from entering the dark compartment is recorded (higher latencies indicate improved memory for the aversive event).
as §2
On the first day of testing (17 days after drug-in-diet was presented) mice were removed from the colony room in their home cage, brought to the testing room, and left undisturbed for 2 hours prior to testing initiation. […] The latency to enter the dark chamber was recorded and was the dependent variable measured for assessing memory retention (latency is defined as entry of the whole mouse; all 4 paws on the grids in the dark side, plus the tail in the chamber for 5 sec; 180 sec is maximum latency). Data were analyzed using Mann Whitney U comparisons. […]

| SMILES | short-term memory retention (social recognition) (Male Sprague Dawley rats) | microdialysate serotonin (5-HT) levels [1] | reduction of total sleep time (Fisher rats; 8 h period) [%] | reduction of number of REM sleep episodes (Fisher rats; 8 h period (FIG. 5a)) [%] | reduction of REM time (Fisher rats; 8 h period (FIG. 5b)) [%] | increase of latency to first REM (Fisher rats; 8 h period (FIG. 5c)) [%] | ACh release under resting conditions ([2]; acute) | ACh release under challenging conditions (home cage to novel cage and back) ([2]; cortex and hippocampus (FIGS. 6a-6c)) | ex vivo inhibition of monkey brain, fat and liver HSD1 (HSD-1; 2.5 and 16 hours following a single oral 10 mg/kg dose) | HSD-1 ex vivo activity, Mean % Veh Control (HSD-1; Cerebral Cortex, 16 hours after single 10 mg/kg oral dose) [%] | HSD-1 ex vivo activity, Mean % Veh Control (HSD-1; Hippocampus, 16 hours after single 10 mg/kg oral dose) [%] | HSD-1 ex vivo activity, Mean % Veh Control (HSD-1; Liver, 2.5 hours after single 10 mg/kg oral dose) [%] | HSD-1 ex vivo activity, Mean % Veh Control (HSD-1; Liver, 16 hours after single 10 mg/kg oral dose) [%] | HSD-1 ex vivo activity, Mean % Veh Control (HSD-1; Mesenteric Fat, 2.5 hours after single 10 mg/kg oral dose) [%] | HSD-1 ex vivo activity, Mean % Veh Control (HSD-1; Mesenteric Fat, 16 hours after single 10 mg/kg oral dose) [%] | phosphorylated CREB immuno-reactivity (phosphorylated CREB) | memory retention (transfer latency), 24-hour inhibitory avoidance (Male CD-1 mice [3]) | memory retention (Mean Transfer Latency), 24-hour inhibitory avoidance (Male CD-1 mice [4]) |
| --- | --- | --- | --- | --- | --- | --- | --- | --- | --- | --- | --- | --- | --- | --- | --- | --- | --- | --- |
| O=C(CN1CCN(c2ccc(C(F)(F)F)cn2)CC1)NC1C2CC3CC1CC(O)(C3)C2 (stereo not drawn) [Compound CC, N-[(E)-5-Hydroxy-2-adamantyl]-2-{4-[5-(trifluoromethyl)pyridin-2-yl]piperazin-1-yl}acetamide] | significant improvement in short-term memory retention | long-lasting increase of serotonin (5-HT) levels | 10 | 16 | 23 | 62 | did not change ACh release | did not induce any further stimulation of ACh release | – | – | – | – | – | – | – | – | – | – |
| CC(C)(Oc1ccc(F)cc1Cl)C(=O)NC1C2CC3CC1CC(S(C)(=O)=O)(C3)C2 (stereo not drawn) [S, 2-(2-Chloro-4-fluorophenoxy)-2-methyl-N-[(E)-5-(methylsulfonyl)-2-adamantyl]propanamide] | – | – | – | – | – | – | – | – | potent ex vivo inhibition | 30 | 42 | 38 | 9 | 90 | 50 | increase in phosphorylated CREB | significant improvement in memory retention | significant improvement in memory retention |
